Experiments:
[1] = system: Salmonella (S. typhimurium, S. enteritidis, S. heidelberg); experiment: Effectiveness of mixes against Salmonella in soybean meal at different temperatures; assay type: cell-based; conditions: for Average (n = 3): Salmonella count; for LOG10 (CFU/g): Salmonella
Procedure: (§1) In order to assess the effectiveness of the mix of the invention in the matrix of interest, an appropriate working protocol was prepared. Initially, 500 g of soybean meal were infected with 50 mL of Salmonella solution whose composition was: 10^6 CFUS. typhimurium/mL, 10^6 CFUS. enteritidis /mLand 10^6 CFUS. heidelberg /mL in equal amounts. […] 50 g of the wet meal obtained (≈25% moisture content on dry basis) were mixed within the dry meal (≈10% moisture content dry basis) and were stirred for 10 minutes. […] Daily determinations of Salmonella colony forming units were performed on this contaminated meal. To this end, 40.5 g of BPW to 4.5 g of the resulting meal were added and vigorously stirred, and then 100μL of this solution, were plated onto Salmonella-Shigella agar (SS Agar). When microorganisms were used in the protecting mixes, concentrations were carefully balanced, and the amount of bacteria added was always the same.
(§2) In the cases in which solutions with ferments were used for protection purposes, cell concentration was of about 10^8 CFU/mL.
The following tests were carried out to assess the effectiveness of different mixes under different conditions. To assess extreme temperatures, meal products were stored at 5, 25, and 32° C., after contamination and protection, respectively. Samples were taken every 24 hours and triplicate determinations of Salmonella, lactic and propionic bacteria were made.

[2] = system: Salmonella (S. typhimurium, S. enteritidis, S. heidelberg); experiment: Effectiveness of mixes against Salmonella in soybean meal with 8% DBM; assay type: cell-based; conditions: 25° C. - 8% DBM; for Average (n = 3): Salmonella count; for LOG10 (CFU/g): Salmonella
Procedure: as §1, §2
After oil is stripped from the soybean flakes during the extraction process, the latter goes through a desolventizer to evaporate the residual hexane remaining after extraction. This process adds moisture to the flakes, since desolventizing is a process that uses steam. Once the soybean flake is desolventized, it is dried to obtain the desired moisture level. The moisture content assessed on a dry basis of a typical meal product is around 11-12% DBM; however, at present we can find meals on the market with a moisture content ranging from 8-13% DBM. The effectiveness of the mix of the invention was tested in meals with different moisture contents.

## CCC(=O)O [Propionic Acid]
[1]; 5° C. - 12% DBM, 0 days
  Average (n = 3): 199.76
  LOG10 (CFU/g): 3.65 LOG10 (CFU/g)
[1]; 5° C. - 12% DBM, 1 day
  Average (n = 3): 165
  LOG10 (CFU/g): 3.56 LOG10 (CFU/g)
[1]; 5° C. - 12% DBM, 2 days
  Average (n = 3): 131.3
  LOG10 (CFU/g): 3.47 LOG10 (CFU/g)
[1]; 5° C. - 12% DBM, 3 days
  Average (n = 3): 90.67
  LOG10 (CFU/g): 3.30 LOG10 (CFU/g)
[1]; 5° C. - 12% DBM, 4 days
  Average (n = 3): 61
  LOG10 (CFU/g): 3.13 LOG10 (CFU/g)
[1]; 5° C. - 12% DBM, 5 days
  Average (n = 3): 57
  LOG10 (CFU/g): 3.10 LOG10 (CFU/g)
[1]; 5° C. - 12% DBM, 6 days
  Average (n = 3): 38
  LOG10 (CFU/g): 2.93 LOG10 (CFU/g)
[1]; 25° C. - 12% DBM, 0 days
  Average (n = 3): 199.67
  LOG10 (CFU/g): 3.65 LOG10 (CFU/g)
[1]; 25° C. - 12% DBM, 1 day
  Average (n = 3): 145.33
  LOG10 (CFU/g): 3.51 LOG10 (CFU/g)
[1]; 25° C. - 12% DBM, 2 days
  Average (n = 3): 110
  LOG10 (CFU/g): 3.39 LOG10 (CFU/g)
[1]; 25° C. - 12% DBM, 3 days
  Average (n = 3): 90
  LOG10 (CFU/g): 3.30 LOG10 (CFU/g)
[1]; 25° C. - 12% DBM, 4 days
  Average (n = 3): 60.67
  LOG10 (CFU/g): 3.13 LOG10 (CFU/g)
[1]; 25° C. - 12% DBM, 5 days
  Average (n = 3): 57
  LOG10 (CFU/g): 3.10 LOG10 (CFU/g)
[1]; 25° C. - 12% DBM, 6 days
  Average (n = 3): 38
  LOG10 (CFU/g): 2.93 LOG10 (CFU/g)
[1]; 32° C. - 12% DBM, 0 days
  Average (n = 3): 199.67
  LOG10 (CFU/g): 3.65 LOG10 (CFU/g)
[1]; 32° C. - 12% DBM, 1 day
  Average (n = 3): 175
  LOG10 (CFU/g): 3.59 LOG10 (CFU/g)
[1]; 32° C. - 12% DBM, 2 days
  Average (n = 3): 130
  LOG10 (CFU/g): 3.46 LOG10 (CFU/g)
[1]; 32° C. - 12% DBM, 3 days
  Average (n = 3): 100.33
  LOG10 (CFU/g): 3.35 LOG10 (CFU/g)
[1]; 32° C. - 12% DBM, 4 days
  Average (n = 3): 90.67
  LOG10 (CFU/g): 3.30 LOG10 (CFU/g)
[1]; 32° C. - 12% DBM, 5 days
  Average (n = 3): 77
  LOG10 (CFU/g): 3.23 LOG10 (CFU/g)
[1]; 32° C. - 12% DBM, 6 days
  Average (n = 3): 58
  LOG10 (CFU/g): 3.11 LOG10 (CFU/g)
[2]; 0 hours
  Average (n = 3): 199.67
  LOG10 (CFU/g): 3.65 LOG10 (CFU/g)
[2]; 12 hours
  Average (n = 3): 175
  LOG10 (CFU/g): 3.59 LOG10 (CFU/g)
[2]; 24 hours
  Average (n = 3): 130
  LOG10 (CFU/g): 3.46 LOG10 (CFU/g)
[2]; 36 hours
  Average (n = 3): 100.33
  LOG10 (CFU/g): 3.35 LOG10 (CFU/g)
[2]; 48 hours
  Average (n = 3): 90.67
  LOG10 (CFU/g): 3.30 LOG10 (CFU/g)
[2]; 60 hours
  Average (n = 3): 77
  LOG10 (CFU/g): 3.23 LOG10 (CFU/g)
[2]; 72 hours
  Average (n = 3): 58
  LOG10 (CFU/g): 3.11 LOG10 (CFU/g)
[2]; 84 hours
  Average (n = 3): 32.33
  LOG10 (CFU/g): 2.85 LOG10 (CFU/g)
[2]; 96 hours
  Average (n = 3): 15
  LOG10 (CFU/g): 2.52 LOG10 (CFU/g)
